One data set concerns the target T1, NTCP (Homo sapiens, UniProt Q14973).
T1 sequence (Q14973 1-349): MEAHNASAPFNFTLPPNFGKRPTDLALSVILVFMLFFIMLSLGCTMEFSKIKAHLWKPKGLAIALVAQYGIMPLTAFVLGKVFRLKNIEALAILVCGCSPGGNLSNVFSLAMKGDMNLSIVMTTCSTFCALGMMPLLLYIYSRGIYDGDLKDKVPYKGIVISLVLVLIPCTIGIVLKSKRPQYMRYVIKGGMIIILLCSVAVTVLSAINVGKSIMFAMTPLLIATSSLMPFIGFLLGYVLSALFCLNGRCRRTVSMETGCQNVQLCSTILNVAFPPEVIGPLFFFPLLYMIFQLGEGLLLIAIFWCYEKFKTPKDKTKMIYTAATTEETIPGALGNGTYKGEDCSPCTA
The experiment in a line: In vitro assays of NTCP inhibition.

The conditions of data set [1]: cited from earlier work.
The test system of data set [2] is sandwich-cultured human hepatocytes. Briefly: Bile acid pool toxicity profile shift in SCHH, ApoTox-Glo Triplex Assay. The note with it: 5 mM and 11 mM glucose. Type of data set: cell-based.
Experimental: Utilizing similar methodology from the previous sections, hepatotoxicity was evaluated with ApoTox-Glo™ Triplex Assay.
The effects of the test compounds were evaluated in the presence of the individual bile acids and in the presence of a bile acid pool. The effects were compared to bile acid treatment alone. DMSO treatment alone was used as a comparator for hepatotoxicity. Hepatotoxicity was evaluated with ApoTox-Glo™ Triplex Assay, which assesses viability, cytotoxicity and apoptosis.
A bile acid mixture was evaluated, and was composed of 4 different bile acids maintained at a physiological relevant ratio of each bile acid. […] Individual bile acids were dosed using the concentration they represent in the mixture.
A treatment group without free fatty acids was used as a control. Hepatotoxicity was evaluated with ApoTox-Glo™ Triplex Assay which assessed viability, cytotoxicity and apoptosis.
For data set [3] the following is noted: cited from earlier work; for clinical toxicity: clinic; for ALT elevations≥3× upper limit normal: large clinical trials.
The subject of data set [4] is SCHH. The experiment in a line: Feasibility study: BA toxicity potency, Ambrisentan vs Sitaxsentan. It counts as cell-based, human. The note with it: 2-200 uM test compound. From the text:
Generally, the presently disclosed methods can in some embodiments comprise culturing SCHH with a concentration range of a bile acid (e.g. DCA), or bile acid pool to identify the toxicity profile of the bile acid (such as by measurement of ATP and/or LDH; dotted line in FIGS. 7 and 8). In a parallel study, SCHH can be exposed to a concentration range of DCA or combination of bile acids in the presence of a potential cholestatic hepatotoxicant.

The target of another data set is BSEP (Homo sapiens, UniProt O95342). Briefly: In vitro assay of BSEP effect.
BSEP, sequence (O95342 whole entry, species assumed): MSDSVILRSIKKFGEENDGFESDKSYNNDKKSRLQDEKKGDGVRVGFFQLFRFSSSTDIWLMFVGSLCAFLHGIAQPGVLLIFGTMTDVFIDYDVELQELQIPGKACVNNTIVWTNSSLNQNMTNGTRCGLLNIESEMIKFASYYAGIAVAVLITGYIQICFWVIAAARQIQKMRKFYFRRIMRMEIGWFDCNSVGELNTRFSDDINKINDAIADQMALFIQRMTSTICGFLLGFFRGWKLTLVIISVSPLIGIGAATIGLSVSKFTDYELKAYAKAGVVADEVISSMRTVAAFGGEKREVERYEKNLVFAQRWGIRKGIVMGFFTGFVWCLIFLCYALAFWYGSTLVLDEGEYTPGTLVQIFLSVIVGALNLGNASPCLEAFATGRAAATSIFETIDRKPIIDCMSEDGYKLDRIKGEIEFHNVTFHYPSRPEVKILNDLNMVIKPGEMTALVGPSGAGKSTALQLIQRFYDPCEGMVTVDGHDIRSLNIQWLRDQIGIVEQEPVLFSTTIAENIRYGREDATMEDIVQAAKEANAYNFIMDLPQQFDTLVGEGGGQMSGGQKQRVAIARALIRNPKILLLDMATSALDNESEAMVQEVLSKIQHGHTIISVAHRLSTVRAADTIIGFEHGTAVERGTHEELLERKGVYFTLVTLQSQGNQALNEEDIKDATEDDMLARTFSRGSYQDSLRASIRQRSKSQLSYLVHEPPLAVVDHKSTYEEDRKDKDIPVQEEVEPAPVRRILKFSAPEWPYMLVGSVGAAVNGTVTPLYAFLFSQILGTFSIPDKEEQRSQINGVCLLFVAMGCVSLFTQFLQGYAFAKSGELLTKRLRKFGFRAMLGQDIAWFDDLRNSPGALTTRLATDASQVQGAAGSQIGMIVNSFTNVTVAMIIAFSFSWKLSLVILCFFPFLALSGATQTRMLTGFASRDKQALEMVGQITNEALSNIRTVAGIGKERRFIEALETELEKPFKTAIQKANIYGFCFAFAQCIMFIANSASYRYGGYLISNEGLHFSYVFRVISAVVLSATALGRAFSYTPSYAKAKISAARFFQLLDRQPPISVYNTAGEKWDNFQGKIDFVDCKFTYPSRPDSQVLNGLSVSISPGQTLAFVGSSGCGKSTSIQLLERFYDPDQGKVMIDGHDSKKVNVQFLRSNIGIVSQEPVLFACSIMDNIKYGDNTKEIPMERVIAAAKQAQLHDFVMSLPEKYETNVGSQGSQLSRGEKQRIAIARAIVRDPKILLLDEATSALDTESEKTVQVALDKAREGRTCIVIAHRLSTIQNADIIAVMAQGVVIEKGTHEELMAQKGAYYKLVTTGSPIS
In data set [5] the test system is SCHH. The experiment in a line: Bile acids at increasing concentrations in SCHH over 24 hours (ATP, LDH). It counts as cell-based, human. The note with it: 24 hr exposure. Here is the method: Bile acids GCA, GCDCA and GDCA were evaluated at increasing concentrations in SCHH over 24 hours. ATP (FIG. 9) and LDH (FIG. 10) content were measured.
The next data set concerns the target T2, FXR (Homo sapiens, UniProt Q96RI1).
T2 construct: endogenous in cells; host or cells: SCHH (sandwich-cultured hepatocytes from donors)
T2 sequence (Q96RI1 1-486): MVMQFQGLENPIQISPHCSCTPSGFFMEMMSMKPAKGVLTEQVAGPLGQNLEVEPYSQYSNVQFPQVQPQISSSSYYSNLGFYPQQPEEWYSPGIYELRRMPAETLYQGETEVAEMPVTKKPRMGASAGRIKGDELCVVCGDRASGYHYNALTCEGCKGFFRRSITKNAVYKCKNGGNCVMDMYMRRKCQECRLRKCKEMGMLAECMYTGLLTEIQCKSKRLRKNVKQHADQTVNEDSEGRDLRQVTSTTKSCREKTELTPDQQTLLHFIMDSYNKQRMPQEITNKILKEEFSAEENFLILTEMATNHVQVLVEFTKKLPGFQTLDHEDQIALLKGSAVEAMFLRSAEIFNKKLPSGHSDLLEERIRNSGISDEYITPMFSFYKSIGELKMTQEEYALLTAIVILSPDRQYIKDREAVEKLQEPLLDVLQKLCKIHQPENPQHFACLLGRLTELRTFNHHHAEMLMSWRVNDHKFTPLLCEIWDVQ
The experiment in a line: FXR antagonism: OSTβ mRNA induction in SCHH co-treated with CDCA and CsA. It counts as cell-based. The text has this: Alternatively, the reduction of OSTβ mRNA content may be explained by cytotoxicity under the conditions evaluated.

Data set [6] deals with SCHH. Briefly: Cholestasis hepatotoxicity screening assay in SCHH (LDH leakage, ATP content), standard vs sensitization medium. It counts as cell-based. The note with it: human, 24 h, 100 μM. From the text:
As discussed above, hepatocytes become susceptible to bile acid toxicity (e.g. cholestatic hepatotoxicity) when drug exposure inhibits bile acid efflux routes (e.g. BSEP and/or MRP3/4) and 1) prevents (antagonize) FXR from sensing the rising intracellular concentrations of bile acids; or 2) inhibits bile acid efflux through OSTα/β; or 3) a combination of both. […] Briefly, hepatocytes were established in a sandwich-cultured configuration for four days. […] Drug exposures ranged from about 8× to about 16× Cmax to account for concentrating effect that can occur in the portal vein following oral administration of test compounds. Following 24 hours, LDH leakage and ATP content was evaluated utilizing commercially available assays.
The sensitization medium included free fatty acids and a physiological mixture of primary and secondary bile acids, described above (GCDCA, GCA, DCA, and GDCA) at an adequate concentration (250 μM) that minimized toxicity but challenged the hepatocytes bile acid homeostasis mechanism.
In general terms: Release of lactate dehydrogenase indicates damage to the cell membrane.

[7] abbreviates: conditions used to examine FXR antagonism.

Data on nine molecules can be found in patent US20190257817A1, “METHODS AND SYSTEMS FOR SCREENING CANDIDATE COMPOUNDS FOR THEIR POTENTIAL TO CAUSE SYSTEMIC OR HEPATIC TOXICITY” (Qualyst Transporter Solutions, LLC, priority 2016, published 2019).

“Also recorded” adds a separate entry of the source. Where two headings read alike, the source gives them in different places.

As for `Cc1cc2c(cc1CC(=O)c1sccc1S(=O)(=O)Nc1onc(C)c1Cl)OCO2` [Sitaxsentan], the NTCP effect entry on NTCP is given as “potent/efficacious NTCP inhibitor”. The Cmax (in general, the highest concentration seen after dosing) in data set [1] (in vivo) was 23500 nM. In data set [2], the “effect on hepatotoxicity of the bile acid pool” value is “did not alter the hepatotoxicity of the bile acid pool”. Also, the clinical toxicity result in data set [3] was “Toxicity in clinic after 5 months; liver likely not primary site of toxicity; also recorded: No toxicity @ 3 months”. In the data set on SCHH [4], the BA toxicity potency entry is recorded as “Decreased BA toxicity potency”. Further, at BSEP, the BSEP effect result is on record as “no BSEP effect”.
On to `COC(c1ccccc1)(c1ccccc1)[C@H](Oc1nc(C)cc(C)n1)C(=O)O` [Ambrisentan], for which the Cmax in data set [1] (in vivo) is 3000 nM. In [3], the clinical toxicity entry was “Well tolerated; no toxicity”. Moreover, the BA toxicity potency entry with SCHH [4] is on record as “No change in BA toxicity potency”.
For `C[C@H](CCC(=O)NCC(=O)O)[C@H]1CC[C@H]2[C@@H]3CC[C@@H]4C[C@H](O)CC[C@]4(C)[C@H]3C[C@H](O)[C@]12C` [GDCA], in the data set on SCHH [5], the “relative toxicity in the ATP assay” value is reported as “GCDCA equaled GDCA” and the “relative toxicity in the LDH assay” value is on record as “greater than GCDCA”.
For the molecule `CN(CCOc1ccc(CC2SC(=O)NC2=O)cc1)c1ccccn1` (stereo not shown) [rosiglitazone], the Cmax in data set [1] (Dawson et al. 2012) was 1000 nM. Besides, the “ALT elevations≥3× upper limit normal” value in [3] is “not different from placebo recipients”.
Consider `COc1cccc(Cn2cc(C(=O)Nc3ccc(C)c(S(=O)(=O)N4CCOCC4)c3)c(-c3ccc(C)cc3)n2)c1` [DY268], for which the “induction of OSTβ mRNA content” value on FXR (SCHH co-treated with CDCA and CsA, troglitazone 75-100 μM) was “A similar effect was observed”.
Take `Cc1c(C)c2c(c(C)c1O)CCC(C)(COc1ccc(CC3SC(=O)NC3=O)cc1)O2` (stereo not shown) [troglitazone]: in the data set on SCHH [6], the ATP content is 0.9 % of control, the LDH leakage is listed as 863 % of control, the LDH secretion is on record as 490 % of control and the “loss of ATP content” value is reported as > 99 % of control. Also, at FXR (setting [7]), the ATP content entry is given as “no significant decreases of ATP content” and the LDH leakage result is on record as “no significant decreases of ATP content or increases of LDH leakage”.
Turning to `CCc1ccc(CCOc2ccc(CC3SC(=O)NC3=O)cc2)nc1` (stereo not shown) [pioglitazone], in data set [1] (Dawson et al. 2012), the Cmax was 2900 nM. In data set [3], the “ALT elevations≥3× upper limit normal” value is on record as “not different from placebo recipients”.
For the molecule `C[C@H](CCC(=O)NCC(=O)O)[C@H]1CC[C@H]2[C@@H]3[C@H](O)C[C@@H]4C[C@H](O)CC[C@]4(C)[C@H]3C[C@H](O)[C@]12C` [GCA], the “cytotoxicity of bile acid” value in the data set with SCHH [5] (increasing concentrations, ATP and LDH) is given as “not cytotoxic”.
`C[C@H](CCC(=O)NCC(=O)O)[C@H]1CC[C@H]2[C@@H]3[C@H](O)C[C@@H]4C[C@H](O)CC[C@]4(C)[C@H]3CC[C@]12C` [GCDCA]: in the data set with SCHH [5], the “relative toxicity in the ATP assay” value is “equaled GDCA” and the “relative toxicity in the LDH assay” value is “GDCA was greater than GCDCA”.
